Test results reported in ChEMBL document CHEMBL1148565 (Bioorg Med Chem Lett, 2006).

Molecular target: Carbonic anhydrase 12 (Homo sapiens, UniProt O43570)
Sequence (O43570 whole entry): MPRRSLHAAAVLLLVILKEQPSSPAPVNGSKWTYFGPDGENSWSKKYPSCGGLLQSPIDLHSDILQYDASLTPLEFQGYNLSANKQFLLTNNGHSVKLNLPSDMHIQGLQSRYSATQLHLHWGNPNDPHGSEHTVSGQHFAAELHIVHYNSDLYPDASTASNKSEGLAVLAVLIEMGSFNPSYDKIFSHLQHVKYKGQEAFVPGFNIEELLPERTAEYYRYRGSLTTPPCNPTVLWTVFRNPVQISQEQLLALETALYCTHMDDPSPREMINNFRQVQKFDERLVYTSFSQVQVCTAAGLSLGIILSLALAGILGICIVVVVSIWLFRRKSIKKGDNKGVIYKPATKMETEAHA
Description: Inhibitory activity against cloned human CA12

Ki: 0.018 µM
SMILES: Cc1ccc(-c2cc(C(F)(F)F)nn2-c2ccc(S(N)(=O)=O)cc2)cc1 [CELECOXIB]
